Test results: US7465738B2, “Compounds useful as promoters of SMN2” (Vertex Pharmaceuticals Incorporated, priority 2003, dated 2008)

System: SMN2 promoter
Experiment: SMN2 promoter-β-lactamase (BLA) assay in NSC-34 cells
Format: cell-based, mouse
Conditions: for EC50: Mus musculus, SMN2 promoter BLA assay, NSC-34 cells, 96-well plates
Source text: Compounds were screened for their ability to increase SMN2 gene transcription. In general the screening method of the invention involves the use of an SMN2 promoter-β-lactamase (BLA) assay in NSC-34 cells. […] This construct was transfected into the NSC-34 cells and a stable pool of SMN2-promoter-BLA cells was generated. […] Optimized protocols are presented in the procedures below. […] Subculture Protocol for and the […]-Bla Cell Line (#5.3) and the SMN2 Promoter-Bla Cell Line (#11). […] Cells were kept at a density between 50,000 and 500,000/ml and were fed every three days with DMEM 5% FCS and incubated at 37° C., 5% CO2 and 90% humidity. • b. Cells were then plated at low density (50,000 cells/ml). • c. […] Cells were fed by manually pipetting the cells, and passaging the cells 1 to 10 to a new flask. […] Standard Assay Protocol #1 for SMN2 Promoter Assays in 96-Well Plates: • e. Cells were washed twice with cold PBS by spinning down and resuspending at 250,000 cells/ml. • f. Cells were resuspended in DMEM 0% FCS at a density of 500,000 cells/ml. • g. Cells were then dispensed 100 μl cells per well of a 96-well, black wall, clear bottom assay plate (Corning Costar, Cat. # 3904). Plate can be pre-formatted with test compounds. • h. […] Cells were incubated for 1 hour in the dark at room temperature. • 6×CCF2-AM Staining Solution: • 60 μl of Sol B • 6 μl of CCF2-AM (1 mM) • 12 μl of Probenecid (1 M, Sigma, Cat # 8761) • 1 μl of Sol C • j. Assay plates were read on a fluorimeter (for example, the Cytofluor 4000 from Perceptive Biosystems) using the following two settings: 460/40 nm emission with 395/25 nm excitation, and 530/25 nm emission with 395/25 nm excitation. • k. […] Standard Assay Protocol #2 for SMN2 Promoter Assays in 96-Well Plates: • l. Cells were washed twice with cold PBS by spinning down and resuspending at 250,000 cells/ml. • m. Cells were then resuspended in DMEM 1% FCS Charcoal Dextran-treated (Hyclone, Cat # SH30038.05) at a density of […]. • n. Cells were then incubated for 24 hours at 37° C. • o. 100 μl cells per well were then dispensed in a 96-well, black wall, clear bottom assay plate (Corning Costar, Cat. # 3904). Plate can be pre-formatted with test compounds. • p. […] Cells were incubated for one hour in the dark at room temperature. • 6×CCF2-AM Staining Solution: • 60 μl of Sol B • 6 μl of CCF2-AM (1 mM) • 12 μl of Probenecid (1 M, Sigma, Cat# 8761) • 1 μl of SolC • r. Assay plates were read on a fluorimeter (for example, the Cytofluor 4000 from Perceptive Biosystems) using the following two settings: 460/40 nm emission with 395/25 nm excitation, and 530/25 nm emission with 395/25 nm excitation. • s.

`Nc1nc(N)c2c(Sc3ccc(Cl)cc3)cccc2n1` [Compound I-2] was tested, and the EC50 was 530 nM.
Compound `O=C1C(=O)N(C(=O)NC2CCCCC2)c2ccc(Br)cc21` [VI-1] has an EC50 of 10000 nM.
With `CCCC(=O)[O-].[Na+]` [sodium butyrate, reference compound] the “increase in BLA expression upon stimulation” value (clone SMN2BLAClone11) was 1.8 fold.
`Nc1nc(N)c2c(Oc3ccc(F)cc3)cccc2n1` [Compound I-3] was tested, and the EC50 was 150 nM.
`CCOc1cccc2nc(N)nc(N)c12` [Compound I-6] showed an EC50 of 600 nM.
`CC(C)Cn1c(=O)n(C)c(=O)c2[nH]cnc21` [IBMX, reference compound] was tested, and the “changes in BLA activity after treatment” value (15 NSC-34 SMN2-promoter-BLA clones with low BLA activity) was “none showed changes in BLA activity”.
For `OCCNCCCOc1cccc(Cl)c1Cl` [VII-1], the EC50 was 3000 nM.
`Nc1nc(N)c2c(Oc3ccccc3)cccc2n1` [Compound I-5] showed an EC50 of 250 nM.
`CN(C)/C=C/c1c(C=O)c2cc([N+](=O)[O-])ccc2n1C` [Compound V-1, 2-((E)-2-(dimethylamino)vinyl)-1-methyl-5-nitro-1H-indole-3-carbaldehyde] showed an EC50 of 6800 nM.
Work on `CCCN(Cc1ccc([N+](=O)[O-])cc1)c1nc(O)nc(NC2CCCC2)n1` [VIII-1] yielded an EC50 of 9000 nM.
